In US20220280601A1, “METHOD FOR TREATMENT OF HEPATIC CANCER USING REIC/Dkk-3 GENE IN COMBINATION WITH ANTI-TUMOR AGENT” (Momotaro-Gene Inc., priority 2019, published 2022):

Legend:
advanced hepatic cancer = conditions: clinical trials, advanced hepatic cancer (Non-Patent Document 1); cited from earlier work
Hep3B cells = assay: MTT cell viability assay, Hep3B; type: cell-based; conditions: 72 hours
Procedure: (§1) The hepatic cancer cell lines Hep3B and Huh7 (hereafter, referred to as “Hep3B cells” and “Huh7 cells,” respectively, according to need) were purchased from the Japanese Cancer Resources Bank (Tokyo, Japan). The cells were maintained in Dulbecco's Modified Eagle's Medium supplemented with 10% FBS, 1% non-essential amino acid, 1% penicillin/streptomycin, and amphotericin B (0.5 μg/ml). The cells were cultured in accordance with a conventional technique in a humidified 5% CO2 incubator at 37° C. When the cells reached subconfluency, they were pretreated in a medium containing 0.1% dialyzed FBS for 24 hours before experimentation and then subjected to experimentation. […]
(§2) The hepatic cancer cell lines Hep3B and Huh7 were cultured in the presence or absence of Ad-LacZ or Ad-REIC for 72 hours. Cell viability was evaluated via MTT assays. […] Mitochondrial activity reflecting cell viability was evaluated by measuring the absorbance at 570 nm using a microplate reader. […]
(§3) Hep3B cells and Huh7 cells were cultured in the presence or absence of Cisplatin (1 μg/ml) for 72 hours and in the presence or absence of Ad-Lac Z (MOI of 50) or Ad-REIC (MOI of 50). Cell viability was evaluated by the MTT assays described above. […]

Huh7 cells = assay: MTT cell viability assay, Huh7; type: cell-based; conditions: 72 hours
Procedure: as §1, §2, §3

[1] = test system: JNK signal transmission pathway (p-ASK1, p-IRE1α, p-JNK, p-c-Jun) in Huh7 cells; assay: Immunoblot analysis of the JNK signal transmission pathway; type: cell-based; conditions: Huh7, lysates 48 hours after transfection, regardless of the presence or absence of Ad-REIC (MOI of 10)
Procedure: The mechanism of Ad-REIC for apoptosis induction was examined. By performing immunoblotting, activation of signal transmission molecules in the JNK signal transmission pathway by Ad-REIC and Cisplatin was evaluated. Ad-LacZ and Ad-REIC at MOI of 10 each were transfected into the Hep3B cells and the Huh7 cells, and cell lysates were collected 48 hours thereafter. Protein expression of phospho-ASK1 (p-ASK1), phospho-IRE1α (p-IRE1α), phospho-JNK (p-JNK), and phospho-c-Jun (p-c-Jun) β-actin was analyzed via immunoblotting using specific antibodies. Immunoblotting of β-actin was performed to examine equal loading of proteins in the cells.

[2] = test system: mouse hepatocellular cancer cell line Hep1-6 allograft; assay: Tumor growth assay in allograft mouse model (Hep1-6), Ad-REIC with Cisplatin; type: in vivo, C57BL/6 mice; conditions: Ad-REIC 1.0×10^9 pfu intratumorally Days 14, 16, Cisplatin 1 mg/kg intraperitoneally Days 14, 21, control PBS
Description: C57BL/6 female mice (6- to 8-week-old) were purchased from Japan SLC Inc. and maintained with free access to feeds and water in the SPF environment in Okayama University animal experimentation facility. Mice were adapted to the breeding environment over a period of 1 week or longer before the experimentation was initiated. Mice were bred and treated under the strictly controlled conditions in accordance with the guidelines provided by the institutional animal control committee, Okayama University Medical School.
The mouse hepatocellular cancer cell line Hep1-6 ([…], suspended in 200 μl of PBS) were injected into the right flanks of the C57BL/6 mice (Day 0). When the tumor diameters reached 5 to 10 mm, administration of Ad-REIC and Cisplatin was initiated. Ad-REIC (1.0×10^9 pfu) was administered intratumorally on Days 14 and 16. Cisplatin (1 mg/kg) was administered intraperitoneally on Days 14 and 21. Tumor sizes were measured 2 times a week, and tumor volumes were determined.

| Structure (SMILES) | medial survival period (advanced hepatic cancer) [months] | cell viability of Hep3B cells, dependence on amount of Cisplatin (Hep3B cells) | cell viability of Huh7 cells, dependence on amount of Cisplatin (Huh7 cells) | expression of p-ASK1, p-IRE1α, p-JNK and p-c-Jun (immunoblotting) [1] | anti-tumor effects (tumor volume) [2] |
| --- | --- | --- | --- | --- | --- |
| CNC(=O)c1cc(Oc2ccc(NC(=O)Nc3ccc(Cl)c(C(F)(F)F)c3)cc2)ccn1 [Sorafenib] | 15.6 | – | – | – | – |
| N.N.[Cl][Pt][Cl] [Cisplatin] | – | decreased depending on the amount of Cisplatin administered | decreased depending on the amount of Cisplatin administered | each such expression was activated | the tumor volume was decreased, and anti-tumor effects were observed |
